The text below walks through data of US9656960B2, “Inhibitors of microsomal triglyceride transfer protein and apo-B secretion” (Surface Logix, Inc., priority 2005, dated 2017).

By IC50 is commonly meant the point on the concentration scale where inhibition reaches its midpoint. Read a low IC50 as greater potency.

Data set [1] concerns Apo-B. Briefly: Apo-B secretion assay in HepG2 cells (ELISA). As to conditions: Homo sapiens, 24 hour incubation, ELISA of growth media. The format is cell-based. As to the method:
A test compound is considered to be active if it is active in any of the following screens. The activity of a compound according to the invention can be assessed by measuring inhibition of apo B secretion in HepG2 cells.
(§1) The following protocol is written for HepG2 cells types, but the same or similar protocol may be used with other cell types, such as Caco-2 cells.
(§2) HepG2 cells were grown in MEM Eagle's medium containing 10% fetal bovine serum with 1% penicillin/streptomycin in an incubator (5% CO2, 100% relative humidity, 37° C.). At ca. 85% confluency, the cells were treated with test compounds (0.2% DMSO) at appropriate concentrations in triplicate. After 24 hour incubation with the test compounds, growth media were collected from each sample. Concentrations for apo-B and apoA1 were determined using ELISA. Mouse anti-human Apo-B and ApoA1 antibody and Alk-phos conjugated secondary antibody (goat) was used in ELISA. Triplicate data in six half-log concentrations were used to calculate an IC50 value for each compound.
On the technique in general: An ELISA detects its analyte on a solid surface through an enzyme-linked reagent.

The subject of data set [2] is ApoA1. Briefly: ApoA1 secretion assay in HepG2 cells (ELISA). The format is cell-based. Conditions: Homo sapiens, 24 hour incubation, ELISA of growth media. Here is the method:
as §1, §2

In data set [3] the test system is Apo-B. Briefly: Apo-B secretion assay in Caco-2 cells (ELISA). Type of data set: cell-based. As to conditions: Homo sapiens. Here is the method: as §1, §2
Data set [4] has as its system ApoA1. Put plainly: ApoA1 secretion assay in Caco-2 cells (ELISA). Type of data set: cell-based. As to conditions: Homo sapiens. As to the method:
as §1, §2

The test system of the next data set is Caco-2. Briefly: Bidirectional Caco-2 permeability assay. The format is in vitro ADME. As to conditions: bidirectional Caco-2 assay, analysis by fluorescence and HPLC. As to the method:
The following table (Table 1) depicts the activity of several compounds of Formula I or II according to the present invention. Permeability was measured in a bidirectional Caco-2 assay with analysis by fluorescence and HPLC.

Regarding `O=C(Nc1ccc2c(c1)CCN(C(=S)NCc1ccccc1)C2)c1ccccc1-c1ccc(C(F)(F)F)cc1` [Compound 10], the IC50 in the data set on Apo-B [1] was 3 nM; in the data set on ApoA1 [2], above 30000 nM; in the data set with Apo-B [3], 40 nM; in the data set on ApoA1 [4] it was above 30000 nM. Moreover, the “Caco-2 (10-6 cm/sec)” value in the data set on Caco-2 is listed as 0 10-6 cm/sec.

`COc1cccc(C(=O)Nc2ccc3c(c2)CCN(C(=O)Oc2ccccc2)C3)c1-c1ccc(C(F)(F)F)cc1` [Compound 11]: the IC50 is 1.6 nM in the data set with Apo-B [1], above 30000 nM in the data set with ApoA1 [2], 7.7 nM with Apo-B [3] and above 30000 nM in the data set with ApoA1 [4]. Besides, the “Caco-2 (10-6 cm/sec)” value with Caco-2 is 0 10-6 cm/sec.

Take `O=C(Nc1ccc2c(c1)CCN(C(=O)OCc1ccccc1)C2)c1ccccc1-c1ccc(C(F)(F)F)cc1` [Compound 12]: the IC50 was 220 nM in the data set with Apo-B [1], above 30000 nM in the data set on ApoA1 [2], 110 nM in the data set with Apo-B [3] and above 30000 nM with ApoA1 [4]. For the same compound, the “Caco-2 (10-6 cm/sec)” value with Caco-2 is reported as 0 10-6 cm/sec.

Take `COCCCNC(=S)N1CCc2cc(NC(=O)c3ccccc3-c3ccc(C(F)(F)F)cc3)ccc2C1` [Compound 13]: the IC50 with Apo-B [1] was 30 nM; in the data set with ApoA1 [2] it was above 30000 nM; with Apo-B [3], 15 nM; in the data set with ApoA1 [4], above 30000 nM. The “Caco-2 (10-6 cm/sec)” value in the data set on Caco-2 is listed as 30 10-6 cm/sec.

Consider `COc1cccc(C(=O)Nc2ccc3c(c2)CCN(c2nc(-c4ccccc4)cs2)C3)c1-c1ccc(C(F)(F)F)cc1` [Compound 14], for which the IC50 with Apo-B [1] is 230 nM; in the data set with ApoA1 [2] it was above 30000 nM; with Apo-B [3], 4400 nM; with ApoA1 [4], above 30000 nM. In addition, in the data set on Caco-2, the “Caco-2 (10-6 cm/sec)” value was 0 10-6 cm/sec.

Take `COc1cccc(C(=O)Nc2ccc3c(c2)CCN(C(=O)OC(C)(C)C)C3)c1-c1ccc(C(F)(F)F)cc1` [Compound 15]: the IC50 in the data set with Apo-B [1] is 6 nM; in the data set on ApoA1 [2], above 30000 nM; with Apo-B [3], 60 nM; in the data set on ApoA1 [4] it was above 30000 nM. Further, the “Caco-2 (10-6 cm/sec)” value in the data set on Caco-2 is on record as 0 10-6 cm/sec.

Consider `COc1cccc(C(=O)Nc2ccc3c(c2)CCN(C(=O)Oc2ccc(F)cc2)C3)c1-c1ccc(C(F)(F)F)cc1` [Compound 16], for which the IC50 with Apo-B [1] is 2.3 nM; in the data set on ApoA1 [2] it was above 30000 nM; with Apo-B [3] it was 11 nM; in the data set on ApoA1 [4], above 30000 nM. Further, in the data set on Caco-2, the “Caco-2 (10-6 cm/sec)” value is recorded as 0 10-6 cm/sec.

For `CC(C)Oc1cccc(C(=O)Nc2ccc3c(c2)CCN(C(=O)Oc2ccccc2)C3)c1-c1ccc(C(F)(F)F)cc1` [Compound 17], the IC50 is 0.7 nM in the data set with Apo-B [1], above 30000 nM in the data set on ApoA1 [2], 16 nM in the data set with Apo-B [3] and above 30000 nM in the data set on ApoA1 [4]. Also, the “Caco-2 (10-6 cm/sec)” value in the data set with Caco-2 is recorded as 0 10-6 cm/sec.
